Experimental data taken from publication PMC6409085, “Three odorant-binding proteins are involved in the behavioral response of Sogatella furcifera to rice plant volatiles” (PeerJ, 2019).
Values joined by “and” are separate entries in the source; they are usually repeats but may differ in a detail not shown here. Identical values can stand only once. Values belong to the molecule of their own block, whether it stands above or below them.

Assays:
Assay in all cases: biochemical
Assay type in all cases: binding
SfurOBP1 = SfurOBP1 (Sogatella furcifera, UniProt V5T8N5); settings: for IC50: SfurOBP1, protein and 1-NPN both 2.0 µM, competitor 2-20 µM, read-out: IC50; for Fluorescence competitive binding assay, fluorescence intensity: OBP1, three replicate columns
Chain of SfurOBP1 (V5T8N5 entry or part of it): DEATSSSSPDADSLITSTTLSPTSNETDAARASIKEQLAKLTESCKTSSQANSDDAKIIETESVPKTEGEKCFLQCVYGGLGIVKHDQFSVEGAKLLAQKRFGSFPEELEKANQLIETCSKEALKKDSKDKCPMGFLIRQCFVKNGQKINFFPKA
Description: (§1) Thirty-six rice odorants ([He et al., 2014]; [Wang et al., 2017]) and 1-N-phenyl-naphthylamine (1-NPN) were purchased from Sigma-Aldrich (St Louis, MO, USA). These odorants and 1-NPN were dissolved in high-performance liquid chromatography (HPLC) purify grade methanol for 1.0 mM as work solution.
(§2) Fluorescence competitive binding assays were performed on Tecan Spark 10M (Tecan Group Ltd., Männedorf, Switzerland) with the F96 Black ELIAS Plate (Sangon) ([Khuhro et al., 2017]; [Liu et al., 2017]). The solutions were excited at 337 nm and emission spectra were recorded between 390 and 490 nm. First, to test the binding constants of 1-NPN to the SfurOBPs, a 2.0 µM solution of protein in 50 mM Tris-HCl (pH = 7.4) was titrated with 1 mM 1-NPN to achieve virous concentrations. Next, the competitive binding of each odorant was measured using the 1-NPN as fluorescent reporter and odorant as competitor. The concentrations of protein and 1-NPN were both 2.0 µM, the odorant added after protein and 1-NPN added into the well of ELIAS Plate for 2 min. The final concentrations of each competitor were 2, 4, 6, 8, 10, 12, 14, 16, 18 and 20 µM. After 2 min of odorant added, the fluorescence intensity was measured and recorded. The volume of mixed solution in each well was maintained at 250 µL. Each interaction was performed in triplicates.
(§3) GraphPad Prism 7.0 software (GraphPad Software, Inc., La Jolla, CA, USA) was used to calculated and generated the binding constants (K1−NPN) of 1-NPN to SfurOBPs and relative Scatchard plots ([Ban et al., 2003]; [Li et al., 2016]). Dissociation constant (Ki) of each odorant to SfurOBP was computed from the corresponding IC50 value (the half maximal inhibitory concentration), using the following equation: Ki=[IC50]/(1 + [1-NPN]/K1−NPN), where [1-NPN] is the free concentration of 1-NPN and K1−NPN is the dissociation constant of the complex protein/1-NPN.

SfurOBP2 = SfurOBP2 (Sogatella furcifera, UniProt V5T759); settings: for IC50: SfurOBP2, protein and 1-NPN both 2.0 µM, competitor 2-20 µM, read-out: IC50
Chain of SfurOBP2 (V5T759 entry or part of it): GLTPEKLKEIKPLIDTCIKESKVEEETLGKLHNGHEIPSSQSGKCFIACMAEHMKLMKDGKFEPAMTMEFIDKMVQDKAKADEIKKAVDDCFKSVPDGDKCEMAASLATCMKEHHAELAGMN
Description: as §1, §2, §3

SfurOBP11 = SfurOBP11 (Sogatella furcifera, UniProt V5T6E3); settings: for IC50: SfurOBP11, protein and 1-NPN both 2.0 µM, competitor 2-20 µM, read-out: IC50
Chain of SfurOBP11 (V5T6E3 entry or part of it): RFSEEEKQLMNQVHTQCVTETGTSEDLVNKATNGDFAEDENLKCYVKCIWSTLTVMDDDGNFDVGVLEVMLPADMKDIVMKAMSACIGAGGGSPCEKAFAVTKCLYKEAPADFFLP
Description: as §1, §2, §3

SfurOBP3 = SfurOBP3 (Sogatella furcifera, UniProt V5T818); settings: for IC50: SfurOBP3, protein and 1-NPN both 2.0 µM, competitor 2-20 µM, read-out: IC50; for Fluorescence competitive binding assay, fluorescence intensity: OBP3, three replicate columns
Chain of SfurOBP3 (V5T818 entry or part of it): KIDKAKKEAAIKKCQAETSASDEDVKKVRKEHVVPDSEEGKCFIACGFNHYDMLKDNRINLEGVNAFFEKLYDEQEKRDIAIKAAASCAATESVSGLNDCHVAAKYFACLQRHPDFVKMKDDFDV
Description: as §1, §2, §3

SMILES: Cc1cc(C(C)(C)C)c(O)c(C(C)(C)C)c1 [2,6-di-tert-butyl-4-methylphenol]
IC50 (SfurOBP1): > 20 µM
IC50 (SfurOBP2): > 20 µM
IC50 (SfurOBP11): 18 µM
IC50 (SfurOBP3): > 20 µM

IC50 (SfurOBP1): > 20 µM
IC50 (SfurOBP2): > 20 µM
IC50 (SfurOBP11): > 20 µM
IC50 (SfurOBP3): > 20 µM
SMILES: CCCCCCCCCCCCCCCC(=O)OC [methyl hexadecanoate]

IC50 (SfurOBP1): > 20 µM
IC50 (SfurOBP2): > 20 µM
IC50 (SfurOBP11): > 20 µM
IC50 (SfurOBP3): > 20 µM
SMILES: CC(C)COC(=O)CCCCC(=O)OCC(C)C [diisobutyl adipate]

Fluorescence competitive binding assay, fluorescence intensity (SfurOBP1; ligand concentration 2 (μM)): 12147 and 12451 and 12785
Fluorescence competitive binding assay, fluorescence intensity (SfurOBP1; ligand concentration 4 (μM)): 16267 and 16004 and 15123
Fluorescence competitive binding assay, fluorescence intensity (SfurOBP1; ligand concentration 6 (μM)): 22521 and 20565 and 17849
Fluorescence competitive binding assay, fluorescence intensity (SfurOBP1; ligand concentration 8 (μM)): 45300 and 22408 and 22243
Fluorescence competitive binding assay, fluorescence intensity (SfurOBP1; ligand concentration 10 (μM)): 28286 and 29968 and 28368
Fluorescence competitive binding assay, fluorescence intensity (SfurOBP1; ligand concentration 12 (μM)): 32121 and 35150 and 30012
Fluorescence competitive binding assay, fluorescence intensity (SfurOBP1; ligand concentration 14 (μM)): 38613 and 36070 and 36799
Fluorescence competitive binding assay, fluorescence intensity (SfurOBP1; ligand concentration 16 (μM)): 34740 and 38687 and 36378
Fluorescence competitive binding assay, fluorescence intensity (SfurOBP1; ligand concentration 18 (μM)): 40518 and 49298 and 40325
Fluorescence competitive binding assay, fluorescence intensity (SfurOBP1; ligand concentration 20 (μM)): 47871 and 41141 and 44944
Fluorescence competitive binding assay, OBP2 (raw fluorescence reading) (SfurOBP2; ligand concentration 2 (unit not given), replicate column 1 of 3): 36028
Fluorescence competitive binding assay, OBP2 (raw fluorescence reading) (SfurOBP2; ligand concentration 2 (unit not given), replicate column 2 of 3): 29538
Fluorescence competitive binding assay, OBP2 (raw fluorescence reading) (SfurOBP2; ligand concentration 2 (unit not given), replicate column 3 of 3): 32173
Fluorescence competitive binding assay, OBP2 (raw fluorescence reading) (SfurOBP2; ligand concentration 4 (unit not given), replicate column 1 of 3): 32085
Fluorescence competitive binding assay, OBP2 (raw fluorescence reading) (SfurOBP2; ligand concentration 4 (unit not given), replicate column 2 of 3): 39967
Fluorescence competitive binding assay, OBP2 (raw fluorescence reading) (SfurOBP2; ligand concentration 4 (unit not given), replicate column 3 of 3): 36772
Fluorescence competitive binding assay, OBP2 (raw fluorescence reading) (SfurOBP2; ligand concentration 6 (unit not given), replicate column 1 of 3): 51385
Fluorescence competitive binding assay, OBP2 (raw fluorescence reading) (SfurOBP2; ligand concentration 6 (unit not given), replicate column 2 of 3): 38065
Fluorescence competitive binding assay, OBP2 (raw fluorescence reading) (SfurOBP2; ligand concentration 6 (unit not given), replicate column 3 of 3): 41844
Fluorescence competitive binding assay, OBP2 (raw fluorescence reading) (SfurOBP2; ligand concentration 8 (unit not given), replicate column 1 of 3): 39886
Fluorescence competitive binding assay, OBP2 (raw fluorescence reading) (SfurOBP2; ligand concentration 8 (unit not given), replicate column 2 of 3): 44063
Fluorescence competitive binding assay, OBP2 (raw fluorescence reading) (SfurOBP2; ligand concentration 8 (unit not given), replicate column 3 of 3): 42977
Fluorescence competitive binding assay, OBP2 (raw fluorescence reading) (SfurOBP2; ligand concentration 10 (unit not given), replicate column 1 of 3): 53038
Fluorescence competitive binding assay, OBP2 (raw fluorescence reading) (SfurOBP2; ligand concentration 10 (unit not given), replicate column 2 of 3): 51904
Fluorescence competitive binding assay, OBP2 (raw fluorescence reading) (SfurOBP2; ligand concentration 10 (unit not given), replicate column 3 of 3): 31312
Fluorescence competitive binding assay, OBP2 (raw fluorescence reading) (SfurOBP2; ligand concentration 12 (unit not given), replicate column 1 of 3): 66556
Fluorescence competitive binding assay, OBP2 (raw fluorescence reading) (SfurOBP2; ligand concentration 12 (unit not given), replicate column 2 of 3): 51896
Fluorescence competitive binding assay, OBP2 (raw fluorescence reading) (SfurOBP2; ligand concentration 12 (unit not given), replicate column 3 of 3): 78968
Fluorescence competitive binding assay, OBP2 (raw fluorescence reading) (SfurOBP2; ligand concentration 14 (unit not given), replicate column 1 of 3): 59847
Fluorescence competitive binding assay, OBP2 (raw fluorescence reading) (SfurOBP2; ligand concentration 14 (unit not given), replicate column 2 of 3): 56230
Fluorescence competitive binding assay, OBP2 (raw fluorescence reading) (SfurOBP2; ligand concentration 14 (unit not given), replicate column 3 of 3): 65733
Fluorescence competitive binding assay, OBP2 (raw fluorescence reading) (SfurOBP2; ligand concentration 16 (unit not given), replicate column 1 of 3): 57526
Fluorescence competitive binding assay, OBP2 (raw fluorescence reading) (SfurOBP2; ligand concentration 16 (unit not given), replicate column 2 of 3): 53371
Fluorescence competitive binding assay, OBP2 (raw fluorescence reading) (SfurOBP2; ligand concentration 16 (unit not given), replicate column 3 of 3): 59678
Fluorescence competitive binding assay, OBP2 (raw fluorescence reading) (SfurOBP2; ligand concentration 18 (unit not given), replicate column 1 of 3): 69952
Fluorescence competitive binding assay, OBP2 (raw fluorescence reading) (SfurOBP2; ligand concentration 18 (unit not given), replicate column 2 of 3): 81927
Fluorescence competitive binding assay, OBP2 (raw fluorescence reading) (SfurOBP2; ligand concentration 18 (unit not given), replicate column 3 of 3): 73816
Fluorescence competitive binding assay, OBP2 (raw fluorescence reading) (SfurOBP2; ligand concentration 20 (unit not given), replicate column 1 of 3): 72726
Fluorescence competitive binding assay, OBP2 (raw fluorescence reading) (SfurOBP2; ligand concentration 20 (unit not given), replicate column 2 of 3): 69859
Fluorescence competitive binding assay, OBP2 (raw fluorescence reading) (SfurOBP2; ligand concentration 20 (unit not given), replicate column 3 of 3): 85793
Fluorescence intensity, fluorescence competitive binding assay, OBP11 (SfurOBP11; ligand concentration 2, replicate 1): 29421
Fluorescence intensity, fluorescence competitive binding assay, OBP11 (SfurOBP11; ligand concentration 2, replicate 2): 25881
Fluorescence intensity, fluorescence competitive binding assay, OBP11 (SfurOBP11; ligand concentration 2, replicate 3): 28224
Fluorescence intensity, fluorescence competitive binding assay, OBP11 (SfurOBP11; ligand concentration 4, replicate 1): 30123
Fluorescence intensity, fluorescence competitive binding assay, OBP11 (SfurOBP11; ligand concentration 4, replicate 2): 33254
Fluorescence intensity, fluorescence competitive binding assay, OBP11 (SfurOBP11; ligand concentration 4, replicate 3): 33112
Fluorescence intensity, fluorescence competitive binding assay, OBP11 (SfurOBP11; ligand concentration 6, replicate 1): 36335
Fluorescence intensity, fluorescence competitive binding assay, OBP11 (SfurOBP11; ligand concentration 6, replicate 2): 36906
Fluorescence intensity, fluorescence competitive binding assay, OBP11 (SfurOBP11; ligand concentration 6, replicate 3): 37537
Fluorescence intensity, fluorescence competitive binding assay, OBP11 (SfurOBP11; ligand concentration 8, replicate 1): 38631
Fluorescence intensity, fluorescence competitive binding assay, OBP11 (SfurOBP11; ligand concentration 8, replicate 2): 37383
Fluorescence intensity, fluorescence competitive binding assay, OBP11 (SfurOBP11; ligand concentration 8, replicate 3): 37911
Fluorescence intensity, fluorescence competitive binding assay, OBP11 (SfurOBP11; ligand concentration 10, replicate 1): 41192
Fluorescence intensity, fluorescence competitive binding assay, OBP11 (SfurOBP11; ligand concentration 10, replicate 2): 43341
Fluorescence intensity, fluorescence competitive binding assay, OBP11 (SfurOBP11; ligand concentration 10, replicate 3): 42267
Fluorescence intensity, fluorescence competitive binding assay, OBP11 (SfurOBP11; ligand concentration 12, replicate 1): 42172
Fluorescence intensity, fluorescence competitive binding assay, OBP11 (SfurOBP11; ligand concentration 12, replicate 2): 43002
Fluorescence intensity, fluorescence competitive binding assay, OBP11 (SfurOBP11; ligand concentration 12, replicate 3): 44132
Fluorescence intensity, fluorescence competitive binding assay, OBP11 (SfurOBP11; ligand concentration 14, replicate 1): 50939
Fluorescence intensity, fluorescence competitive binding assay, OBP11 (SfurOBP11; ligand concentration 14, replicate 2): 48639
Fluorescence intensity, fluorescence competitive binding assay, OBP11 (SfurOBP11; ligand concentration 14, replicate 3): 49789
Fluorescence intensity, fluorescence competitive binding assay, OBP11 (SfurOBP11; ligand concentration 16, replicate 1): 53380
Fluorescence intensity, fluorescence competitive binding assay, OBP11 (SfurOBP11; ligand concentration 16, replicate 2): 53280
Fluorescence intensity, fluorescence competitive binding assay, OBP11 (SfurOBP11; ligand concentration 16, replicate 3): 53495
Fluorescence intensity, fluorescence competitive binding assay, OBP11 (SfurOBP11; ligand concentration 18, replicate 1): 69760
Fluorescence intensity, fluorescence competitive binding assay, OBP11 (SfurOBP11; ligand concentration 18, replicate 2): 71076
Fluorescence intensity, fluorescence competitive binding assay, OBP11 (SfurOBP11; ligand concentration 18, replicate 3): 64769
Fluorescence intensity, fluorescence competitive binding assay, OBP11 (SfurOBP11; ligand concentration 20, replicate 1): 67623
Fluorescence intensity, fluorescence competitive binding assay, OBP11 (SfurOBP11; ligand concentration 20, replicate 2): 62432
Fluorescence intensity, fluorescence competitive binding assay, OBP11 (SfurOBP11; ligand concentration 20, replicate 3): 62669
Fluorescence competitive binding assay, fluorescence intensity (SfurOBP3; ligand concentration 2): 79169 and 74941 and 94761
Fluorescence competitive binding assay, fluorescence intensity (SfurOBP3; ligand concentration 4): 75066 and 75962 and 116353
Fluorescence competitive binding assay, fluorescence intensity (SfurOBP3; ligand concentration 6): 80726 and 113361 and 131059
Fluorescence competitive binding assay, fluorescence intensity (SfurOBP3; ligand concentration 8): 127533 and 115294 and 124955
Fluorescence competitive binding assay, fluorescence intensity (SfurOBP3; ligand concentration 10): 151439 and 140422 and 180514
Fluorescence competitive binding assay, fluorescence intensity (SfurOBP3; ligand concentration 12): 128094 and 97542 and 122147
Fluorescence competitive binding assay, fluorescence intensity (SfurOBP3; ligand concentration 14): 143468 and 130975 and 143763
Fluorescence competitive binding assay, fluorescence intensity (SfurOBP3; ligand concentration 16): 147668 and 180253 and 155136
Fluorescence competitive binding assay, fluorescence intensity (SfurOBP3; ligand concentration 18): 151347 and 96227 and 180613
Fluorescence competitive binding assay, fluorescence intensity (SfurOBP3; ligand concentration 20): 179130 and 144685 and 179646
SMILES: CCCCCCCCCCCCCCCC(=O)OC [MH(methyl hexadecanoate)]
